These results are taken from BindingDB's records for doi:10.1074/jbc.M607913200 (Incyte, 2006).

The target in this experiment is T1, Tyrosine-protein phosphatase non-receptor type 1 [1-298] (Homo sapiens, UniProt P18031).
T1 construct: 1-298
T1 sequence (P18031 whole entry): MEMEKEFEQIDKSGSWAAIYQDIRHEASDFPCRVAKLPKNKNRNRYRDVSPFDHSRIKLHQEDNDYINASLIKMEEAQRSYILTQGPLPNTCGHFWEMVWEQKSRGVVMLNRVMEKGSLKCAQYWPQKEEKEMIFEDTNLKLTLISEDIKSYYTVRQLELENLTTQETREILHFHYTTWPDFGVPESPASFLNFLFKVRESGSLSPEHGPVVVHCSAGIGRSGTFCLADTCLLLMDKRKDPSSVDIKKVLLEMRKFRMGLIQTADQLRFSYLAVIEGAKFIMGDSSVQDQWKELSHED
In words: Phosphatase Inhibition Assay.

The term IC50 denotes the concentration at which inhibition is half-maximal. High values mean a need for much substance, low ones inhibition by little substance. For `N#Cc1cc(C[C@H](NS(=O)(=O)c2ccccc2)c2nc3ccccc3[nH]2)ccc1C1CC(=O)NS1(=O)=O` (stereo partly drawn) [N-[(1S)-1-(1H-1,3-benzodiazol-2-yl)-2-[3-cyano-4-(1,1,3-trioxo-1,2-thiazolidin-5-yl)phenyl]ethyl]benzenesulfonamide], the IC50 came out at 0.031 µM.

For the molecule `O=C1CC(c2ccc(C[C@H](NS(=O)(=O)c3cc(Cl)cc(Cl)c3)c3nc4ccccc4[nH]3)cc2)S(=O)(=O)N1` (stereo partly drawn) [N-[(1S)-1-(1H-1,3-benzodiazol-2-yl)-2-[4-(1,1,3-trioxo-1,2-thiazolidin-5-yl)phenyl]ethyl]-3,5-dichlorobenzene-1-sulfonamide], the concentration for half-maximal inhibition (IC50) is 0.051 µM.

Molecule `O=C(Cc1ccc(C(F)(F)P(=O)(O)O)cc1)N[C@@H](Cc1ccccc1)C(=O)NCCc1ccc(C(F)(F)P(=O)(O)O)cc1` [[(4-{2-[(2S)-2-(1-{4-[difluoro(phosphono)methyl]phenyl}acetamido)-3-phenylpropanamido]ethyl}phenyl)difluoromethyl]phosphonic acid] showed a half-maximal inhibitory concentration (IC50) (pH 7, 22 °C) of 0.046 µM.

Take `O=C1CC(c2ccc(C[C@H](NC(=O)C(F)(F)c3ccccc3)c3nc4ccccc4[nH]3)cc2)S(=O)(=O)N1` (stereo partly drawn) [N-[(1S)-1-(1H-1,3-benzodiazol-2-yl)-2-[4-(1,1,3-trioxo-1,2-thiazolidin-5-yl)phenyl]ethyl]-2,2-difluoro-2-phenylacetamide]: 0.2 µM corresponded to half-maximal inhibition (IC50).

Take `NC(=O)[C@H](Cc1ccc(C(F)(F)P(=O)(O)O)cc1)NC(=O)[C@@H](NC(=O)Cc1ccc(C(F)(F)P(=O)(O)O)cc1)C(=O)O` [(2R)-2-{[(1S)-1-carbamoyl-2-{4-[difluoro(phosphono)methyl]phenyl}ethyl]carbamoyl}-2-(1-{4-[difluoro(phosphono)methyl]phenyl}acetamido)acetic acid]: the IC50 (pH 7, 22 °C) is 0.0004 µM. This lies in the sub-nanomolar range.
